Reference: PubChem BioAssay (NCI)
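Dose response: 5 concentrations. Exposure: 48 h. Format: 96-well plates. Endpoint: linear interpolation; highest concentration if not reached. GI50: concentration for 50% inhibition of growth. Definition used: TGI = concentration required for complete inhibition of growth.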

Tests used:
Experiment in all cases: NCI-60 cell line screen, 48 h
786-0 renal = tested on: 786-0 renal
A498 renal = tested on: A498 renal
A549 NSCLC = tested on: A549 NSCLC
ACHN renal = tested on: ACHN renal
BT-549 breast = tested on: BT-549 breast
CAKI-1 renal = tested on: CAKI-1 renal
CCRF-CEM leukemia = tested on: CCRF-CEM leukemia
COLO 205 colon = tested on: COLO 205 colon
DU-145 prostate = tested on: DU-145 prostate
EKVX NSCLC = tested on: EKVX NSCLC
HCC-2998 colon = tested on: HCC-2998 colon
HCT-116 colon = tested on: HCT-116 colon
HCT-15 colon = tested on: HCT-15 colon
HL-60(TB) leukemia = tested on: HL-60(TB) leukemia
HOP-62 NSCLC = tested on: HOP-62 NSCLC
HOP-92 NSCLC = tested on: HOP-92 NSCLC
HS 578T breast = tested on: HS 578T breast
HT29 colon = tested on: HT29 colon
IGROV1 ovarian = tested on: IGROV1 ovarian
K-562 leukemia = tested on: K-562 leukemia
KM12 colon = tested on: KM12 colon
LOX IMVI melanoma = tested on: LOX IMVI melanoma
M14 melanoma = tested on: M14 melanoma
MALME-3M melanoma = tested on: MALME-3M melanoma
MCF7 breast = tested on: MCF7 breast
MDA-MB-231 breast = tested on: MDA-MB-231 breast
MDA-MB-435 = tested on: MDA-MB-435
MOLT-4 leukemia = tested on: MOLT-4 leukemia
NCI-H226 lung = tested on: NCI-H226 lung
NCI-H23 lung = tested on: NCI-H23 lung
NCI-H460 lung = tested on: NCI-H460 lung
NCI-H522 lung = tested on: NCI-H522 lung
NCI/ADR-RES ovarian = tested on: NCI/ADR-RES ovarian
OVCAR-3 ovarian = tested on: OVCAR-3 ovarian
OVCAR-4 ovarian = tested on: OVCAR-4 ovarian
OVCAR-5 ovarian = tested on: OVCAR-5 ovarian
OVCAR-8 ovarian = tested on: OVCAR-8 ovarian
PC-3 prostate = tested on: PC-3 prostate
RPMI-8226 leukemia = tested on: RPMI-8226 leukemia
RXF 393 renal = tested on: RXF 393 renal
SF-268 CNS = tested on: SF-268 CNS
SF-295 CNS = tested on: SF-295 CNS
SF-539 CNS = tested on: SF-539 CNS
SK-MEL-2 melanoma = tested on: SK-MEL-2 melanoma
SK-MEL-28 melanoma = tested on: SK-MEL-28 melanoma
SK-MEL-5 melanoma = tested on: SK-MEL-5 melanoma
SK-OV-3 ovarian = tested on: SK-OV-3 ovarian
SN12C renal = tested on: SN12C renal
SNB-19 CNS = tested on: SNB-19 CNS
SNB-75 CNS = tested on: SNB-75 CNS
SR leukemia = tested on: SR leukemia
SW-620 colon = tested on: SW-620 colon
T-47D breast = tested on: T-47D breast
TK-10 renal = tested on: TK-10 renal
U251 CNS = tested on: U251 CNS
UACC-257 melanoma = tested on: UACC-257 melanoma
UACC-62 melanoma = tested on: UACC-62 melanoma
UO-31 renal = tested on: UO-31 renal

C/C=C(\C)C(=O)O[C@H]1C=CC(=O)O[C@H]1CC[C@H](O)[C@H](C)O
GI50 (786-0 renal): 5.46 µM
TGI (786-0 renal): 12.8 µM
GI50 (A498 renal): 16.4 µM
TGI (A498 renal): 30.3 µM
GI50 (A549 NSCLC): 18 µM
TGI (A549 NSCLC): 36.3 µM
GI50 (ACHN renal): 6.42 µM
TGI (ACHN renal): 19.7 µM
GI50 (BT-549 breast): 6.14 µM
TGI (BT-549 breast): 19.9 µM
GI50 (CAKI-1 renal): 7.12 µM
TGI (CAKI-1 renal): 13.1 µM
TGI (CCRF-CEM leukemia): 0.335 µM
GI50 (COLO 205 colon): 3.22 µM
TGI (COLO 205 colon): 10.1 µM
GI50 (DU-145 prostate): 13.8 µM
TGI (DU-145 prostate): 27 µM
GI50 (EKVX NSCLC): 15.8 µM
TGI (EKVX NSCLC): 30.5 µM
GI50 (HCC-2998 colon): 12.3 µM
TGI (HCC-2998 colon): 26.3 µM
GI50 (HCT-116 colon): 1.38 µM
TGI (HCT-116 colon): 2.82 µM
GI50 (HCT-15 colon): 3.41 µM
TGI (HCT-15 colon): 12.7 µM
GI50 (HL-60(TB) leukemia): 0.469 µM
TGI (HL-60(TB) leukemia): 4.77 µM
GI50 (HOP-62 NSCLC): 15.3 µM
TGI (HOP-62 NSCLC): 29.7 µM
GI50 (HOP-92 NSCLC): 6.3 µM
TGI (HOP-92 NSCLC): 16.1 µM
GI50 (HS 578T breast): 6.8 µM
TGI (HS 578T breast): 18.1 µM
GI50 (HT29 colon): 2.38 µM
TGI (HT29 colon): 6.65 µM
GI50 (IGROV1 ovarian): 4.17 µM
TGI (IGROV1 ovarian): 19 µM
GI50 (K-562 leukemia): 2.3 µM
TGI (K-562 leukemia): 8.72 µM
GI50 (KM12 colon): 12.4 µM
TGI (KM12 colon): 29.1 µM
GI50 (LOX IMVI melanoma): 2.24 µM
TGI (LOX IMVI melanoma): 5.66 µM
GI50 (M14 melanoma): 6.82 µM
TGI (M14 melanoma): 21.9 µM
GI50 (MALME-3M melanoma): 4.62 µM
TGI (MALME-3M melanoma): 16.1 µM
GI50 (MCF7 breast): 2.45 µM
TGI (MCF7 breast): 11.3 µM
GI50 (MDA-MB-231 breast): 12.8 µM
TGI (MDA-MB-231 breast): 28.3 µM
GI50 (MDA-MB-435): 3.43 µM
TGI (MDA-MB-435): 12.7 µM
GI50 (MOLT-4 leukemia): 0.522 µM
TGI (MOLT-4 leukemia): 5.59 µM
GI50 (NCI-H226 lung): 4.14 µM
TGI (NCI-H226 lung): 16.6 µM
GI50 (NCI-H23 lung): 15.7 µM
TGI (NCI-H23 lung): 34.2 µM
GI50 (NCI-H460 lung): 11.6 µM
TGI (NCI-H460 lung): 25.4 µM
GI50 (NCI-H522 lung): 2.05 µM
TGI (NCI-H522 lung): 6.13 µM
GI50 (NCI/ADR-RES ovarian): 15.3 µM
TGI (NCI/ADR-RES ovarian): 34 µM
GI50 (OVCAR-3 ovarian): 3.06 µM
TGI (OVCAR-3 ovarian): 8.79 µM
GI50 (OVCAR-4 ovarian): 6.42 µM
TGI (OVCAR-4 ovarian): 20.7 µM
GI50 (OVCAR-5 ovarian): 16.9 µM
TGI (OVCAR-5 ovarian): 32.1 µM
GI50 (OVCAR-8 ovarian): 12.8 µM
TGI (OVCAR-8 ovarian): 30.7 µM
GI50 (PC-3 prostate): 8.46 µM
TGI (PC-3 prostate): 22.7 µM
GI50 (RPMI-8226 leukemia): 2.22 µM
TGI (RPMI-8226 leukemia): 7.54 µM
GI50 (RXF 393 renal): 2 µM
TGI (RXF 393 renal): 5.4 µM
GI50 (SF-268 CNS): 2.83 µM
TGI (SF-268 CNS): 12.3 µM
GI50 (SF-295 CNS): 13 µM
TGI (SF-295 CNS): 26.5 µM
GI50 (SF-539 CNS): 13.3 µM
TGI (SF-539 CNS): 27.1 µM
GI50 (SK-MEL-2 melanoma): 8.41 µM
TGI (SK-MEL-2 melanoma): 27.9 µM
GI50 (SK-MEL-28 melanoma): 2.85 µM
TGI (SK-MEL-28 melanoma): 8.05 µM
GI50 (SK-MEL-5 melanoma): 5.13 µM
TGI (SK-MEL-5 melanoma): 11 µM
GI50 (SK-OV-3 ovarian): 16.2 µM
TGI (SK-OV-3 ovarian): 31 µM
GI50 (SN12C renal): 8.06 µM
TGI (SN12C renal): 25.3 µM
GI50 (SNB-19 CNS): 12.3 µM
TGI (SNB-19 CNS): 26.4 µM
GI50 (SNB-75 CNS): 8.98 µM
TGI (SNB-75 CNS): 22.7 µM
GI50 (SR leukemia): 15.1 µM
TGI (SR leukemia): 45.7 µM
GI50 (SW-620 colon): 2.64 µM
TGI (SW-620 colon): 6.08 µM
GI50 (T-47D breast): 2.34 µM
TGI (T-47D breast): 10.8 µM
GI50 (TK-10 renal): 9.78 µM
TGI (TK-10 renal): 23.9 µM
GI50 (U251 CNS): 4.64 µM
TGI (U251 CNS): 17.4 µM
GI50 (UACC-257 melanoma): 16.4 µM
TGI (UACC-257 melanoma): 34.2 µM
GI50 (UACC-62 melanoma): 6.42 µM
TGI (UACC-62 melanoma): 17.3 µM
GI50 (UO-31 renal): 9.06 µM
TGI (UO-31 renal): 23.5 µM
